Laboratory results from EP4737445A1, “NOVEL SATURATED HETEROCYCLE-SUBSTITUTED HETEROARYL-CARBONOHYDRAZONOYL DICYANIDE COMPOUND AND USE THEREOF” (Korea Institute of Science and Technology, priority 2023, dated 2025).

Columns and labels:
[1] = target: T1, TDP-43 protein (Homo sapiens, UniProt Q13148); test: TDP-43 aggregation inhibition in TDP-43-BiFC cell model (Forskolin-induced); format: cell-based; settings: for inhibition at 3 µM: read-out: TDP-43 protein aggregation inhibitory effect: Aggregation inhibitory effect (%) (@3 uM)
T1 construct: BiFC fluorescent-protein fragments (two complementary halves); expressed in transfected cells
T1 sequence (Q13148 whole entry, the tested form may be a part): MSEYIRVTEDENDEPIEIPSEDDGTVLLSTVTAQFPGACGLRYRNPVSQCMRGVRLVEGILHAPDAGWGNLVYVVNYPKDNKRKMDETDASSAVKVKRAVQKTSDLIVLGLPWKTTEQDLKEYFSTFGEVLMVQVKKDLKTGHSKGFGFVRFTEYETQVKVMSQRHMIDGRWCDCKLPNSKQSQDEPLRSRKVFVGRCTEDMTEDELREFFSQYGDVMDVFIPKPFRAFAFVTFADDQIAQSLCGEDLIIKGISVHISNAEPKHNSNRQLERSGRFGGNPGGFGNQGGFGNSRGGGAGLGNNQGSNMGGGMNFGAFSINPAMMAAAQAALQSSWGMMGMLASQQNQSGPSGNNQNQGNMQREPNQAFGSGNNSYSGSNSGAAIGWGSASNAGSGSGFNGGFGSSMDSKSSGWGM
How it was run: (§1)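 Forskolin (30 µM) co-treated with compound (screen 3 and 10 µM; dose-response 0.003–10 µM) for 48 h. BiFC fluorescence normalised to Forskolin-only (100% aggregation) minus untreated; viability from Hoechst-stained nuclei count vs Forskolin-only. IC50 by nonlinear regression.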

[2] = tested on: TDP-43 BiFC cells; test: Cell viability (stained nuclei count) in TDP-43-BiFC cells; format: cell-based; settings: Forskolin-only group = 100%
How it was run: as §1

[3] = Liver microsomal stability, rat; format: in vitro ADME; settings: 1 µM compound; 0.5 mg/mL microsomes; NADPH; 30 minutes at 37°C
How it was run: (§2)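 Compound (1 µM) incubated with liver microsomes (0.5 mg/mL; human, dog, rat, mouse) in 0.1 M phosphate pH 7.4, 5 min preincubation at 37°C, then 30 min with NADPH-generating system. Acetonitrile quench; remaining parent quantified by LC-MS/MS.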

[4] = Liver microsomal stability, mouse; format: in vitro ADME; settings: 1 µM compound; 0.5 mg/mL microsomes; NADPH; 30 minutes at 37°C
How it was run: as §2

[5] = target: T2, CYP2C9 (Homo sapiens, UniProt P11712); test: CYP isoenzyme activity inhibition in human liver microsomes, CYP2C9; format: in vitro ADME; settings: 10 µM compound; human liver microsomes 0.25 mg/mL; relative to control without compound
T2 construct: human liver microsomes (0.25 mg/mL); from tissue; host or cells: human liver microsomes
T2 sequence (P11712 whole entry): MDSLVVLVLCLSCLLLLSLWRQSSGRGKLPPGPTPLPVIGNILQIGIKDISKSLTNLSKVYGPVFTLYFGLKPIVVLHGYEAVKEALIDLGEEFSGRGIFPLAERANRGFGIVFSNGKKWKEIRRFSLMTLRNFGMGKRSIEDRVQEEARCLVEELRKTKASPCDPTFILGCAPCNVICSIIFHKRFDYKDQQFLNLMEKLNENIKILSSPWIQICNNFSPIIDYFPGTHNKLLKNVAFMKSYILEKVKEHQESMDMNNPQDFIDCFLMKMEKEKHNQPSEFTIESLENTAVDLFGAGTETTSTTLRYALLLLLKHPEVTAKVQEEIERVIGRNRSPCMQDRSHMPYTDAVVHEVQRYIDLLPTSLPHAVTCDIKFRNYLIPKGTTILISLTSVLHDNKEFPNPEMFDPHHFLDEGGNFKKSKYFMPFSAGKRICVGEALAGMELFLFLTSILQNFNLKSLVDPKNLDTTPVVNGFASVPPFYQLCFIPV
How it was run: (§3)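 Human liver microsomes 0.25 mg/mL, pH 7.4 phosphate, with cocktail substrates phenacetin 50 µM (1A2), diclofenac 10 µM (2C9), S-mephenytoin 100 µM (2C19), midazolam 2.5 µM (3A4); compound at 10 µM. 5 min pre-incubation, then NADPH for 15 min at 37 °C; metabolites by LC-MS/MS MRM, reported as % activity of no-compound control.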

[6] = target: T3, CYP2C19 (Homo sapiens, UniProt P33261); test: CYP isoenzyme activity inhibition in human liver microsomes, CYP2C19; format: in vitro ADME; settings: 10 µM compound; human liver microsomes 0.25 mg/mL; relative to control without compound
T3 construct: human liver microsomes (0.25 mg/mL); from tissue; host or cells: human liver microsomes
T3 sequence (P33261 whole entry): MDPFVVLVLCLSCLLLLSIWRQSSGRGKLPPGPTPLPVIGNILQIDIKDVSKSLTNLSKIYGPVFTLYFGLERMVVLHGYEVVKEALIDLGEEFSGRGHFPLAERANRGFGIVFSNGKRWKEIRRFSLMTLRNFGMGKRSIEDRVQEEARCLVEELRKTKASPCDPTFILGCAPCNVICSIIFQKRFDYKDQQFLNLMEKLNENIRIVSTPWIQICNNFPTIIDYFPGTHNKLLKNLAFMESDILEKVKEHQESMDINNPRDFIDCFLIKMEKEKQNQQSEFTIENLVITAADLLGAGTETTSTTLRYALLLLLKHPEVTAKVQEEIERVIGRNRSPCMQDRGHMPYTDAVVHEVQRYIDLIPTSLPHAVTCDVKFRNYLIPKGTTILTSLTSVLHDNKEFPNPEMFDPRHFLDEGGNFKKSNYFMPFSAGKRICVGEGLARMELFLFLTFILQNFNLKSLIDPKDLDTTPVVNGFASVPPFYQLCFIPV
How it was run: as §3

[7] = target: T4, CYP2D6 (Homo sapiens, UniProt P10635); test: CYP isoenzyme activity inhibition in human liver microsomes, CYP2D6; format: in vitro ADME; settings: 10 µM compound; human liver microsomes 0.25 mg/mL; relative to control without compound
T4 construct: human liver microsomes (0.25 mg/mL); from tissue; host or cells: human liver microsomes
T4 sequence (P10635 whole entry): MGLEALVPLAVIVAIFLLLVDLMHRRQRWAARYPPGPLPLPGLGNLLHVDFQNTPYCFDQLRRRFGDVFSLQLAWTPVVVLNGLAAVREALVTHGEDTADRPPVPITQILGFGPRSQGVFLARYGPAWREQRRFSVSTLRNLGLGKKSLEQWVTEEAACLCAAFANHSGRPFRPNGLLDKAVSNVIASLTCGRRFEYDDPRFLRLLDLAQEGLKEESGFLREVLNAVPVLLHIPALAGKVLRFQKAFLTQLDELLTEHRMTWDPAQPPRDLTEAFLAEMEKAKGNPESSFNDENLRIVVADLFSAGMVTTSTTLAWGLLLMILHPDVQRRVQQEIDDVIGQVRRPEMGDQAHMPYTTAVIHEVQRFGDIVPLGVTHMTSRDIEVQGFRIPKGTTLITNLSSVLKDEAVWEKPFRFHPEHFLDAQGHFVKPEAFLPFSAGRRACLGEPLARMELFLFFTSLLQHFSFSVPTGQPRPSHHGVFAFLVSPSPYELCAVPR

[8] = target: T5, CYP3A4 (Homo sapiens, UniProt P08684); test: CYP isoenzyme activity inhibition in human liver microsomes, CYP3A4; format: in vitro ADME; settings: 10 µM compound; human liver microsomes 0.25 mg/mL; relative to control without compound
T5 construct: human liver microsomes (0.25 mg/mL); from tissue; host or cells: human liver microsomes
T5 sequence (P08684 whole entry): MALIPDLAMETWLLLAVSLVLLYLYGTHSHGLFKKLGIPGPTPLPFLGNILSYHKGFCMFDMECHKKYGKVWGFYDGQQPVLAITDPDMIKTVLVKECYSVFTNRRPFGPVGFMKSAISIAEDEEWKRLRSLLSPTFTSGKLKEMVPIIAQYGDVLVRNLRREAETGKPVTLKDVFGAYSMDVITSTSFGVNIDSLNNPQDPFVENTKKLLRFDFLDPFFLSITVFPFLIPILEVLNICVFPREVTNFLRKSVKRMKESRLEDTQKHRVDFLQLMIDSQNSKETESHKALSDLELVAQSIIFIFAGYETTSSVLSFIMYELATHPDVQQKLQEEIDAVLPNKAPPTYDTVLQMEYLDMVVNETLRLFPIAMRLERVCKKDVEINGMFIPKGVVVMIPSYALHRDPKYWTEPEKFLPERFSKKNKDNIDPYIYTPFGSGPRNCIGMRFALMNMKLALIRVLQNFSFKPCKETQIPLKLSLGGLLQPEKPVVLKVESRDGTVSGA
How it was run: as §3

Compound	inhibition at 3 µM [1] [%]	Cell viability (%) (@ 3 uM) [2]	Rat microsomes (% remaining) [3] [% remaining]	Mouse microsomes (% remaining) [4] [% remaining]	CYP2C9 (% activity) [5] [% activity]	CYP2C19 (% activity) [6] [% activity]	CYP2D6 (% activity) [7] [% activity]	CYP3A4 (% activity) [8] [% activity]	IC50 [1] [nM]
N#CC(C#N)=NNc1ccc2nc(N3CC[C@@H](F)C3)oc2c1 [Compound 41, (R)-(2-(3-fluoropyrrolidin-1-yl)benzo[d]oxazol-6-yl)carbonohydrazonoyl dicyanide]	87.8	71.5	19.0	65.3	51.2	86.7	86.8	86.5	–
Cn1c(N2C3CCC2COC3)nc2cc(NN=C(C#N)C#N)ccc21 [Compound 35, (2-(3-oxa-8-azabicyclo[3.2.1]octan-8-yl)-1-methyl-1H-benzo[d]imidazol-5-yl)carbonohydrazonoyl dicyanide]	62.9	67.4	74.1	95.1	84.3	82	94.9	86.1	192
Cn1c(N2CCOCC2)nc2cc(NN=C(C#N)C#N)ccc21 [Compound 6, (1-methyl-2-morpholino-1H-benzo[d]imidazol-5-yl)carbonohydrazonoyl dicyanide]	97.4	98.1	66.1	87.3	> 100	98.4	> 100	96.7	–
N#CC(C#N)=NNc1ccc2nc(NC(=O)N3CC4CCC(C3)O4)sc2c1 [Compound 40, (2-(8-oxa-3-azabicyclo[3.2.1]octane-3-carboxamido)benzo[d]thiazol-6-yl)carbonohydrazonoyl dicyanide]	67.7	95.6	87.7	93.4	46.9	65.7	88.6	75.5	–
CC1CN(c2nc3ccc(NN=C(C#N)C#N)cc3o2)CC(C)O1 (stereo not drawn) [Compound 18, (2-(2,6-dimethylmorpholino)benzo[d]oxazol-6-yl)carbonohydrazonoyl dicyanide]	98.6	102.1	72.9	86.2	> 100	100	97	94.6	–
N#CC(C#N)=NNc1ccc2nc(N3C4CCC3COC4)sc2c1 [Compound 11, (2-(3-oxa-8-azabicyclo[3.2.1]octan-8-yl)benzo[d]thiazol-6-yl)carbonohydrazonoyl dicyanide]	100	80.9	73.9	87.8	70.2	80.3	98.6	78.4	–
COC1CCN(c2nc3ccc(NN=C(C#N)C#N)cc3o2)CC1 [Compound 17, (2-(4-methoxypiperidin-1-yl)benzo[d]oxazol-6-yl)carbonohydrazonoyl dicyanide]	100	96.9	59.3	> 100	73.8	90	89.5	87.1	–
CC1COCCN1c1nc2ccc(NN=C(C#N)C#N)cc2s1 (stereo not drawn) [Compound 13, (2-(3-methylmorpholino)benzo[d]thiazol-6-yl)carbonohydrazonoyl dicyanide]	100	63.6	47.7	84.8	75	83.3	> 100	84.8	–
CC(C)N1CCN(c2nc3ccc(NN=C(C#N)C#N)cc3o2)CC1 [Compound 28, (2-(4-isopropylpiperazin-1-yl)benzo[d]oxazol-6-yl)carbonohydrazonoyl dicyanide]	57.1	113.4	50.7	81.8	48.5	90.8	78	87.8	–
CC1CN(c2nc3ccc(NN=C(C#N)C#N)cc3s2)CCO1 (stereo not drawn) [Compound 12, (2-(2-methylmorpholino)benzo[d]thiazol-6-yl)carbonohydrazonoyl dicyanide]	100	73.0	70.1	85.1	65.1	84.8	94.8	78.9	–
